Source: paper PMC7587356, “High-Throughput Screening for Inhibitors of the SARS-CoV-2 Protease Using a FRET-Biosensor” (Molecules, 2020)
Counter-ions that a name gives are not always drawn. Like-named read-outs stand apart in the source and are kept apart here.

Target: SARS-CoV-2 3CLpro (Severe acute respiratory syndrome coronavirus 2, UniProt P0DTD1)
Experiment: biochemical
Type: biochemical
Design: Replicate_1 / Replicate_2 / mean / mean (LOPAC_screen_w_protease): unit not given here
Conditions: for mean (LOPAC screen with protease) / Replicate_1 (LOPAC screen with protease) / Replicate_2 (LOPAC screen with protease): primary screen at 5 µM; for inhibition at 5 µM: 4 h
[1] = sheet LOPAC_screen_w_protease, primary screen with protease, mean of two replicates
[2] = sheet LOPAC_screen_w_protease, primary screen with protease, replicate 1
[3] = sheet LOPAC_screen_w_protease, primary screen with protease, replicate 2
[4] = sheet LOPAC_screen_w_protease, mean of two replicates
[5] = sheet LOPAC_screen_w_protease, replicate 1
[6] = sheet LOPAC_screen_w_protease, replicate 2
[7] = LOPAC1280 primary screen with protease, 5 µM compound, replicate 1, read-out: Replicate_1 (LOPAC_screen_w_protease)
[8] = LOPAC1280 primary screen with protease, 5 µM compound, mean of the two replicates
[9] = LOPAC1280 primary screen with protease, 5 µM compound, mean of two replicates
[10] = LOPAC1280 primary screen with protease, 5 µM compound, replicate 1
[11] = LOPAC1280 primary screen with protease, 5 µM compound, replicate 2
[12] = sheet LOPAC_screen_w_protease, primary screen with protease, compound at 5 µM, mean of two replicates
[13] = sheet LOPAC_screen_w_protease, primary screen with protease, compound at 5 µM, replicate 1
[14] = sheet LOPAC_screen_w_protease, primary screen with protease, compound at 5 µM, replicate 2
[15] = sheet LOPAC_screen_w_protease, primary screen of LOPAC1280 at 5 µM with protease, mean of the two replicates, read-out: mean
[16] = sheet LOPAC_screen_w_protease, primary screen of LOPAC1280 at 5 µM with protease, replicate 1, read-out: Replicate_1
[17] = sheet LOPAC_screen_w_protease, primary screen of LOPAC1280 at 5 µM with protease, replicate 2, read-out: Replicate_2
[18] = sheet LOPAC_screen_w_protease, LOPAC1280 primary screen at 5 µM, with protease, mean of the two replicates
[19] = sheet LOPAC_screen_w_protease, LOPAC1280 primary screen at 5 µM, with protease, replicate 1
[20] = sheet LOPAC_screen_w_protease, LOPAC1280 primary screen at 5 µM, with protease, replicate 2
[21] = sheet LOPAC_screen_w_protease, primary screen with protease, 5 µM, mean of two replicates
[22] = sheet LOPAC_screen_w_protease, primary screen with protease, 5 µM, replicate 1
[23] = sheet LOPAC_screen_w_protease, primary screen with protease, 5 µM, replicate 2

O=c1[nH]c2ccccc2c2ccccc12 [6(5H)-Phenanthridinone]
mean [1]: 2.579 | Replicate_1 [2]: 3.064 | Replicate_2 [3]: 2.0946

Br.NC1CCc2cc(O)c(O)cc2C1 (stereo not shown) [6,7-ADTN hydrobromide]
mean (LOPAC screen with protease) [4]: 64.0916 | Replicate_1 (LOPAC screen with protease) [5]: 63.1732 | Replicate_2 (LOPAC screen with protease) [6]: 65.0099

O=c1[nH]c2cc(Cl)c(Cl)cc2[nH]c1=O [6,7-Dichloroquinoxaline-2,3-dione]
mean (sheet LOPAC_screen_w_protease, LOPAC1280 primary screen with protease, 5 µM compound, mean of the two replicates): 4.331 | Replicate_1 (sheet LOPAC_screen_w_protease, LOPAC1280 primary screen with protease, 5 µM compound, replicate 1): 5.455 | Replicate_2 (sheet LOPAC_screen_w_protease, LOPAC1280 primary screen with protease, 5 µM compound, replicate 2): 3.207

NCCCCCC(=O)O [6-Aminohexanoic acid]
inhibition at 5 µM [7]: 2.45% | inhibition at 5 µM (LOPAC1280 primary screen with protease, 5 µM compound, replicate 2, read-out: Replicate_2 (LOPAC_screen_w_protease)): 1.78% | mean (LOPAC_screen_w_protease) [8]: 2.116

COc1cc2c(CCNC(C)=O)c[nH]c2cc1Cl [6-Chloromelatonin]
mean (LOPAC_screen_w_protease) [9]: 1.65 | Replicate_1 (LOPAC_screen_w_protease) [10]: 0.5069 | Replicate_2 (LOPAC_screen_w_protease) [11]: 2.794

Cl.NCC(O)c1cc(O)c(O)cc1F (stereo not shown) [6-Fluoronorepinephrine hydrochloride]
mean [12]: 2.749 | Replicate_1 [13]: 2.331 | Replicate_2 [14]: 3.1667

COc1cc2c(CCNC(C)=O)c[nH]c2cc1O [6-Hydroxymelatonin]
mean [1]: 2.302 | Replicate_1 [2]: 3.2941 | Replicate_2 [3]: 1.31

CCCCCCCCCCC/C=C\C(C)(C)/C=C\CCCC(=O)O [7,7-Dimethyl-(5Z,8Z)-eicosadienoic acid]
mean [1]: 2.303 | Replicate_1 [2]: 4.092 | Replicate_2 [3]: 0.5145

O=C(O)c1cc(O)c2ccc(Cl)cc2n1 [7-Chlorokynurenic acid]
inhibition at 5 µM [15]: 3.48% | inhibition at 5 µM [16]: 3.97% | inhibition at 5 µM [17]: 2.98%

O=[N+]([O-])c1cccc2cn[nH]c12 [7-Nitroindazole]
inhibition at 5 µM (sheet LOPAC_screen_w_protease, primary screen with protease, compound at 5 µM, mean of two replicates, read-out: mean): 3.04% | inhibition at 5 µM (sheet LOPAC_screen_w_protease, primary screen with protease, compound at 5 µM, replicate 1, read-out: Replicate_1): 2.19% | inhibition at 5 µM (sheet LOPAC_screen_w_protease, primary screen with protease, compound at 5 µM, replicate 2, read-out: Replicate_2): 3.89%

Cn1c(=O)c2c(nc(C=Cc3cccc(Cl)c3)n2C)n(C)c1=O [8-(3-Chlorostyryl)caffeine]
mean [18]: 0.7326 | Replicate_1 [19]: 1.9699 | Replicate_2 [20]: -0.5047

Cn1c(=O)c2[nH]c(-c3ccc(S(=O)(=O)O)cc3)nc2n(C)c1=O [8-(p-Sulfophenyl)theophylline]
mean [12]: 3.141 | Replicate_1 [13]: 2.844 | Replicate_2 [14]: 3.439

Nc1nc2c(nc(Br)n2[C@@H]2O[C@@H]3COP(=O)([O-])O[C@H]3[C@H]2O)c(=O)[nH]1.[Na+] [8-Bromo-cGMP sodium]
mean [12]: 2.652 | Replicate_1 [13]: 4.1 | Replicate_2 [14]: 1.204

Cn1c(=O)c2[nH]c(C3CCCC3)nc2n(C)c1=O [8-Cyclopentyl-1,3-dimethylxanthine]
mean [21]: 0.2262 | Replicate_1 [22]: 2.489 | Replicate_2 [23]: -2.037

CCCn1c(=O)c2[nH]c(C3CCCC3)nc2n(CCC)c1=O [8-Cyclopentyl-1,3-dipropylxanthine]
mean (LOPAC_screen_w_protease) [9]: 1.568 | Replicate_1 (LOPAC_screen_w_protease) [10]: 3.936 | Replicate_2 (LOPAC_screen_w_protease) [11]: -0.7999

Nc1ncnc2c1ncn2C1CCCC1 [9-cyclopentyladenine]
mean [12]: 2.587 | Replicate_1 [13]: 2.53 | Replicate_2 [14]: 2.643

CC(N)=NCc1cccc(CN)c1.Cl.Cl [1400W dihydrochloride]
mean [18]: 0.5066 | Replicate_1 [19]: 0.5348 | Replicate_2 [20]: 0.4785

CC(C)C[C@H]1C(=O)N2CCC[C@H]2[C@]2(O)O[C@](NC(=O)[C@@H]3C=C4c5cccc6[nH]c(Br)c(c56)C[C@H]4N(C)C3)(C(C)C)C(=O)N12.CS(=O)(=O)O [(+)-Bromocriptine methanesulfonate]
mean (LOPAC_screen_w_protease) [8]: 1.984 | Replicate_1 (LOPAC_screen_w_protease) [10]: 2.405 | Replicate_2 (LOPAC_screen_w_protease) [11]: 1.562

CN(C)CC[C@@H](c1ccc(Br)cc1)c1ccccn1 [(+)-Brompheniramine maleate]
inhibition at 5 µM (sheet LOPAC_screen_w_protease, LOPAC1280 at 5 µM, mean of two replicates, read-out: mean): 1.03% | inhibition at 5 µM (sheet LOPAC_screen_w_protease, LOPAC1280 at 5 µM, replicate 1, read-out: Replicate_1): 0.743% | inhibition at 5 µM (sheet LOPAC_screen_w_protease, LOPAC1280 at 5 µM, replicate 2, read-out: Replicate_2): 1.32%

CN1CCCC1c1cccnc1.Cc1ccc(C(=O)OC(C(=O)O)C(OC(=O)c2ccc(C)cc2)C(=O)O)cc1 (stereo not drawn) [(+)-Nicotine (+)-di-p-toluoyl tartrate]
Replicate_1 (LOPAC_screen_w_protease): 1.288 | Replicate_2 (LOPAC_screen_w_protease): 2.109 | mean (LOPAC_screen_w_protease): 1.698

CC[C@@H]1C(=O)OC[C@@H]1Cc1cncn1C.Cl [(+)-Pilocarpine hydrochloride]
mean [18]: 0.6668 | Replicate_1 [19]: 2.011 | Replicate_2 [20]: -0.6778

N[C@@H](Cn1oc(=O)[nH]c1=O)C(=O)O [(+)-Quisqualic acid]
mean [18]: 0.4364 | Replicate_1 [19]: 1.4914 | Replicate_2 [20]: -0.6187

C[C@@H]1OC[C@H](C[N+](C)(C)C)O1.[I-] [(+)-cis-Dioxolane iodide]
mean (LOPAC screen with protease) [4]: 7.2322 | Replicate_1 (LOPAC screen with protease) [5]: 5.683 | Replicate_2 (LOPAC screen with protease) [6]: 8.781

C[N+]1(C)CCc2cc3c(cc2[C@H]1[C@@H]1OC(=O)c2c1ccc1c2OCO1)OCO3.[Br-] [(-)-Bicuculline methbromide, 1(S), 9(R)]
mean [1]: 2.342 | Replicate_1 [2]: 1.484 | Replicate_2 [3]: 3.2

CN1C(=O)CC[C@H]1c1cccnc1 [(-)-Cotinine]
mean [1]: 2.4459 | Replicate_1 [2]: 2.442 | Replicate_2 [3]: 2.45

CNC[C@H](O)c1ccc(O)c(O)c1 [(-)-Epinephrine bitartrate]
inhibition at 5 µM (read-out: Replicate_1): 5.37% | inhibition at 5 µM (read-out: Replicate_2): 0.847% | inhibition at 5 µM (read-out: mean): 3.11%

CN1CC[C@@]2(C)c3cc(O)ccc3N(C)[C@@H]12.O=C(O)/C=C/C(=O)O [(-)-Eseroline fumarate]
mean (LOPAC screen with protease) [4]: 88.3904 | Replicate_1 (LOPAC screen with protease) [5]: 89.8661 | Replicate_2 (LOPAC screen with protease) [6]: 86.9147

C[C@@]12N[C@@H](Cc3ccccc31)c1ccccc12.O=C(O)/C=C\C(=O)O [(-)-MK-801 hydrogen maleate]
mean (LOPAC screen with protease) [4]: 6.636 | Replicate_1 (LOPAC screen with protease) [5]: 5.967 | Replicate_2 (LOPAC screen with protease) [6]: 7.306

COc1ccc2cc([C@H](C)C(=O)[O-])ccc2c1.[Na+] [(-)-Naproxen sodium]
Replicate_2: -1.573 | mean: 0.4756

C=C(C)[C@H]1CC=C(C(=O)O)CC1 [(-)-Perillic acid]
mean [21]: -0.8057 | Replicate_1 [22]: 1.127 | Replicate_2 [23]: -2.738

CNC(=O)Oc1ccc2c(c1)[C@]1(C)CCN(C)[C@@H]1N2C [(-)-Physostigmine]
inhibition at 5 µM [15]: 3.4% | inhibition at 5 µM [16]: 5.4% | inhibition at 5 µM [17]: 1.4%

C[N+]1(C)[C@@H]2C[C@@H](OC(=O)[C@H](CO)c3ccccc3)C[C@H]1[C@@H]1O[C@@H]12 [(-)-Scopolamine methyl bromide]
inhibition at 5 µM (sheet LOPAC_screen_w_protease, LOPAC1280 primary screen at 5 µM, with protease, mean of two replicates, read-out: mean): -1.17% | inhibition at 5 µM (sheet LOPAC_screen_w_protease, LOPAC1280 primary screen at 5 µM, with protease, replicate 1, read-out: Replicate_1): 0.833% | inhibition at 5 µM (sheet LOPAC_screen_w_protease, LOPAC1280 primary screen at 5 µM, with protease, replicate 2, read-out: Replicate_2): -3.16%

CCN1CCC[C@H]1CNC(=O)c1cc(S(N)(=O)=O)ccc1OC [(-)-Sulpiride]
inhibition at 5 µM [7]: 0.997% | mean (LOPAC_screen_w_protease) [9]: 1.652

Cl.c1ccc([C@H]2CN3CCSC3=N2)cc1 [(-)-Tetramisole hydrochloride]
Replicate_1: 0.0709 | Replicate_2: 1.236 | mean: 0.6536

CN(Cc1cnc2nc(N)nc(N)c2n1)c1ccc(C(=O)N[C@@H](CCC(=O)O)C(=O)O)cc1 [(-)Amethopterin]
mean (LOPAC_screen_w_protease) [8]: 2.014 | Replicate_1 (LOPAC_screen_w_protease) [10]: 2.356 | Replicate_2 (LOPAC_screen_w_protease) [11]: 1.671

NC/C=C/C(=O)O [(E)-4-amino-2-butenoic acid]
mean (LOPAC_screen_w_protease) [9]: 1.558 | Replicate_1 (LOPAC_screen_w_protease) [10]: 1.878 | Replicate_2 (LOPAC_screen_w_protease) [11]: 1.238
